Measurements reported in patent publication US8580957B2, “Thetrahydroquinolines derivatives as bromodomain inhibitors” (GlaxoSmithKline LLC, priority 2009, dated 2013).
Structures can show the parent of a compound that is named as a salt. Where two headings read alike, the source gives them in different places.

What was measured:
[1] = tested on: TNFα levels in LPS stimulated whole blood; assay: LPS Stimulated Whole Blood Measuring TNFα Levels Assay; type: cell-based; conditions: LPS 200 ng/ml, 24 hours, read-out: pIC50 (TNFα levels) (converted)
Procedure: LPS Stimulated Whole Blood Measuring TNFα Levels Assay
(§1) Activation of monocytic cells by agonists of toll-like receptors such as bacterial lipopolysaccharide (LPS) results in production of key inflammatory mediators including TNFα. Such pathways are widely considered to be central to the pathophysiology of a range of auto-immune and inflammatory disorders.
(§2) Compounds to be tested are diluted to give a range of appropriate concentrations and 1 ul of the dilution stocks is added to wells of a 96 plate. Following addition of whole blood (130 ul) the plates are incubated at 37 degrees (5% CO2) for 30 min before the addition of 10 ul of 2.8 ug/ml LPS, diluted in complete RPMI 1640 (final concentration=200 ng/ml), to give a total volume of 140 ul per well. After further incubation for 24 hours at 37 degrees, 140 ul of PBS are added to each well. The plates are sealed, shaken for 10 minutes and then centrifuged (2500 rpm×10 min). 100 ul of the supernatant are removed and TNFα levels assayed by immunoassay (typically by MesoScale Discovery technology) either immediately or following storage at −20 degrees. Dose response curves for each compound was generated from the data and an IC50 value was calculated.

[2] = tested on: Balb/c male mice given a lethal dose of LPS; assay: In Vivo Mouse Endotoxemia Model; conditions: 15 mg/kg LPS i.p.; compound 10 mg/kg intravenously 90 min later; summed across multiple repeat experiments
Text: In Vivo Mouse Endotoxemia Model
High doses of Endotoxin (bacterial lipopolysaccharide) administered to animals produce a profound shock syndrome including a strong inflammatory response, dysregulation of cardiovascular function, organ failure and ultimately mortality. This pattern of response is very similar to human sepsis and septic shock, where the body's response to a significant bacterial infection can be similarly life threatening.
To test the compounds of the invention groups of eight Balb/c male mice were given a lethal dose of 15 mg/kg LPS by intraperitoneal injection. Ninety minutes later, animals were dosed intravenously with vehicle (20% cyclodextrin 1% ethanol in apyrogen water) or compound (10 mg/kg). The survival of animals was monitored at 4 days.
Numbers of animals surviving at 4 days (summed across multiple repeat experiments)

[3] = tested on: Human cell lines (n=33 comprising 15 heme cell lines, 14 breast cell lines and 4 other cell lines); assay: Oncology Growth Assay (CellTiter-Glo); type: cell-based; conditions: 72 hours
Procedure: Human cell lines (n=33 comprising 15 heme cell lines, 14 breast cell lines and 4 other cell lines) were cultured in RPMI-1640 containing 10% fetal bovine serum, 1000 viable cells per well were plated in 384-well black flat bottom polystyrene plates (Greiner #781086) in 48 μl of culture media. All plates were placed at 5% CO2, 37° C. overnight. The following day one plate was harvested with CellTiter-Glo (CTG, Promega #G7573) for a time equal to 0 (T0) measurement and compound (20 point titration from 14.7 uM to […]) was added to the remaining plates. The final concentration of DMSO in all wells was 0.15%. Cells were incubated for 72 hours or the indicated time and each plate was developed with CellTiter-Glo reagent using a volume equivalent to the cell culture volume in the wells. Plates were shaken for approximately 2 minutes and chemiluminescent signal was read on the Analyst GT (Molecular Devices) or EnVision Plate Reader (Perkin Elmer).
Results were expressed as a percent of the TO and plotted against the compound concentration. The TO value was normalized to 100% and represents the number of cells at time of compound addition and the concentration response data were fit with a 4 parameter curve fit using XLfit software (model 205). The concentration that inhibited cell growth by 50% (gIC50) is the midpoint of the ‘growth window’ (between the TO and DMSO control). The Ymin−T0 value is determined by subtracting the T0 value (100%) from the Ymin value (%) determined from the fit of the concentration response curve. Values from the wells with no cells were subtracted from all samples for background correction.

[4] = tested on: LPS induced IL-6 secretion from whole blood; assay: Measurement of LPS Induced IL-6 Secretion from Whole Blood; type: cell-based; conditions: LPS 200 ng/ml, 24 hours, read-out: pIC50 (IL-6 levels) (converted)
Procedure: Measurement of LPS Induced IL-6 Secretion from Whole Blood
as §1, with “IL-6.” for “TNFα.”
as §2, with “concentrations of which” for “concentrations and”, “the diluted” for “the dilution”, “to” for “to wells of”, “96 well” for “96”, “and IL-6” for “and TNFα”, “degrees. Concentration” for “degrees. Dose”

melting point [°C]	IC50 [1] [µM]	Structure (SMILES)	also measured
146	≤ 10	CC(=O)N1c2ccc(-c3ccc(C(=O)N4CCOCC4)cc3)cc2C(Nc2ccc(Cl)cc2)CC1C (stereo not shown) [Example 109]	–
121	≤ 10	CCN(c1ccccc1)[C@H]1C[C@@H](C)N(C(C)=O)c2ccc(-c3ccccc3)cc21 (stereo in doubt) [Example 87, 1-acetyl-N-ethyl-2-methyl-N,6-diphenyl-1,2,3,4-tetrahydro-4-quinolinamine]	–
–	–	CC(=O)N1c2ccc(-c3ccc(C(=O)O)cc3)cc2[C@H](Nc2ccc(Cl)cc2)C[C@@H]1C [Example 6, 4-{(2S,4R)-1-acetyl-4-[(4-chlorophenyl)amino]-2-methyl-1,2,3,4-tetrahydro-6-quinolinyl}benzoic acid]	Animals surviving at 4 days (percent) [2]: 58%; Numbers of animals surviving at 4 days [2]: 14/24; IC50 ([3]; all 33 cell lines, read-out: gIC50 across all cell lines): 0.035 to 9.2 µM; IC50 ([3]; breast cell lines, read-out: gIC50 for breast cell lines): 0.04 to 9.2 µM; IC50 ([3]; heme cell lines, read-out: gIC50 for heme cell lines): 0.035 to 0.844 µM; IC50 [4]: ≤ 10 µM
90	–	CC(=O)N1c2ccc(-c3ccc(CN(C)C)cc3)cc2[C@@H](Nc2ccccc2)C[C@H]1C (racemic) [Example 35, 1-acetyl-6-{4-[(dimethylamino)methyl]phenyl}-2-methyl-N-phenyl-1,2,3,4-tetrahydro-4-quinolinamine]	–
–	≤ 10	CC(=O)N1c2ccc(-c3ccc(CN4CCCCC4)cc3)cc2[C@@H](Nc2ccc(F)cn2)C[C@H]1C (racemic) [Example 137, (cis)-1-Acetyl-N-(5-fluoro-2-pyridinyl)-2-methyl-6-[4-(1-piperidinylmethyl)phenyl]-1,2,3,4-tetrahydro-4-quinolinamine formate salt]	IC50 [4]: ≤ 10 µM
134	–	CCNC(=O)c1ccc(-c2ccc3c(c2)[C@@H](Nc2ccc(Cl)cc2)C[C@@H](C)N3C(C)=O)cc1 (stereo in doubt) [Example 101, 4-{1-Acetyl-4-[(4-chlorophenyl)amino]-2-methyl-1,2,3,4-tetrahydro-6-quinolinyl}-N-ethylbenzamide]	–
–	≤ 10	CC(=O)N1c2ccc(-c3ccc(CN4CCCCC4)cc3)cc2[C@H](Nc2ccccc2)C[C@@H]1C [Example 164, (2S,4R)-1-Acetyl-2-methyl-N-phenyl-6-[4-(1-piperidinylmethyl)phenyl]-1,2,3,4-tetrahydro-4-quinolinamine]	IC50 [4]: ≤ 10 µM
250	–	CC(=O)N1c2ccc(-c3ccc(-c4nn[nH]n4)cc3)cc2[C@@H](Nc2ccc(Cl)cc2)C[C@H]1C (stereo in doubt) [Example 121, 1-Acetyl-N-(4-chlorophenyl)-2-methyl-6-[4-(1H-tetrazol-5-yl)phenyl]-1,2,3,4-tetrahydro-4-quinolinamine]	–
114	–	CCOC(=O)c1ccc(-c2ccc3c(c2)[C@@H](Nc2ccc(Cl)cc2)C[C@@H](C)N3C(C)=O)cc1 (stereo in doubt) [Example 119, Ethyl 4-{1-acetyl-4-[(4-chlorophenyl)amino]-2-methyl-1,2,3,4-tetrahydro-6-quinolinyl}benzoate]	–
106	–	CC(=O)N1c2ccc(-c3ccc(CN4CCCCC4)cc3)cc2[C@@H](Nc2ccc(F)cc2)C[C@H]1C (racemic) [Example 11, 1-Acetyl-2-methyl-N-(4-fluorophenyl)-6-[4-(1-piperidinylmethyl)phenyl]-1,2,3,4-tetrahydro-4-quinolinamine]	–
252	–	COC(=O)c1ccc(-c2ccc3c(c2)C(Nc2ccc(C#N)cc2)CC(C)N3C(C)=O)cc1 (stereo not shown) [Example 82]	–
140	–	CC(=O)N1c2ccc(-c3ccc(C#N)cc3)cc2[C@@H](Nc2ccc(F)cc2)C[C@H]1C (racemic) [Example 62, 4-{1-acetyl-4-[(4-fluorophenyl)amino]-2-methyl-1,2,3,4-tetrahydro-6-quinolinyl}benzonitrile]	–
–	≤ 10	CC[C@@H]1C[C@H](Nc2ccccc2)c2cc(-c3ccc(C(=O)O)cc3)ccc2N1C(C)=O (racemic) [Example 162, 4-[(cis)-1-Acetyl-2-ethyl-4-(phenylamino)-1,2,3,4-tetrahydro-6-quinolinyl]benzoic acid]	–
